Measurements published in patent publication US11142533B2, “Macrocycles for use in treating disease” (TURNING POINT THERAPEUTICS, INC., priority 2019, dated 2021).
Converted amounts (≈) assume the structure as drawn.

How the values were obtained:
KM12 (TPM3-TRKA) = KM12 (TPM3-TRKA) (Homo sapiens, UniProt P04629); test: Cell proliferation assay (CellTiter-Glo)
KG-1 cell (OP2-FGFR1) = KG-1 cell (OP2-FGFR1) (Homo sapiens, UniProt P11362); test: Cell proliferation assay (CellTiter-Glo)
[1] = Solubility test in phosphate buffer; assay type: physicochemical; conditions: aqueous buffer, thermodynamic from solid; phosphate buffer pH 7.4, room temperature
Method: Aliquot of 1.035 mL phosphate buffer (PB) (pH 7.4) was added into 2.07 mg of the test compound (for a 2 mg·mL^−1 upper limiting solubility determination) in a 1.5 mL tubes. The mixture was ultrasonicly treated for 10 min and rotated on rotator at room temperature for more than 8 hr. After rotation, the tube was ultrasonicly treated for 10 min and centrifuged at 13000 rpm for 15 min. 0.3 mL of the supernatant was transferred into a 0.6 mL tube and discarded after rotated for 5 min for rinsing, then about 0.6 mL of the residual supernatant was transferred into the rinsed tube and centrifuged again at 13000 rpm for 15 min. The supernatant after every centrifugation was appropriately diluted and transferred for LC-MS/MS analysis where a standard curve was constructed with 7 concentration levels (2, 4, 10, 20, 40, 100 and 200 μg mL^−1) and used for the quantitation of the analyte in PB.

[2] = Liver microsomal stability; assay type: in vitro ADME; conditions: pH 7.4, 1 μM compound, 0.5 mg/mL liver microsome protein
Method: The test compound stock solution was prepared by weighing 1.07 mg and dissolving in 0.261 mL of DMSO to achieve the concentration of 10 mM. Working solution of the test compound was prepared by diluting stock solution using DMSO to yield the concentration of 300 μM.
The assay was carried out in 96-well microtiter plates. In each well, the reaction mixture (25 μL) contained the test compound at the final concentration of 1 μM, 0.5 mg/mL liver microsome protein, and 1 mM NADPH in 100 mM potassium phosphate, pH 7.4 buffer with 3.3 mM MgCl2. The mixtures were incubated in duplicate at 37° C. for 0, 15, 30 or 60 minutes, and 150 μL of quench solution (acetonitrile with 0.1% formic acid) with internal standard (bucetin for positive ESI mode) was added into each well of reaction to terminate the reaction. The plates were then sealed and centrifuged at 4° C. for 15 minutes at 4000 rpm. The resulting supernatant was transferred to fresh plates for LC-MS/MS analysis of the test compounds. Verapamil was used as the positive control to validate the assay system.
All samples were analyzed with LC-MS/MS using an AB Sciex API 4000 instrument, coupled to a Shimadzu LC-20AD LC Pump system. Analytical samples were separated using a Waters Atlantis T3 dC18 reverse phase HPLC column (20 mm×2.1 mm) at a flow rate of 0.5 mL/min. The mobile phase consisted of 0.1% formic acid in water (solvent A) and 0.1% formic acid in acetonitrile (solvent B).
The extent of metabolism was calculated based on the disappearance of the test compound, compared to its initial concentration. The initial rates of clearance of test compounds were calculated using linear regression plot of semi-log % remaining of compounds versus time. The elimination rate constant (equals to negative slope) of the linear regression plot was then used to determine t112 and the intrinsic clearance (CLInt) using the following formula: k=−slope t1/2=0.693/k CLint=k/Cprotein
Where Cprotein (mg/mL) is the microsomal protein concentration in the incubation system.

[3] = Mouse pharmacokinetic study; assay type: in vivo; conditions: single oral dose (dose level not given), plasma
Method: To prepare 1 L of the vehicle solution (0.5% CMC and 1.0% Tween 80), 10 g of Tween 80 was mixed with 985 mL of water into a 1 L bottle. The mixture was stirred until Tween 80 was completely dissolved. With continued stirring, 5 g of CMC was very slowly sprinkled into the solution. Stirring was continued until all CMC was dissolved, which might take several hr. The resulting vehicle solution was stored at 4° C.
The compound was suspended in the vehicle solution and the mice were orally administrated with a single dose of the compound at the selected dose level. The blood samples were collected according to the defined time table into tubes containing K2-EDTA, followed by gentle mixing to assure distribution of the anti-coagulant. Immediately after the blood sample was collected and mixed, it was placed on ice. The samples were then centrifuged at 4° C. for 10 minutes at 5,000 RPM. The plasma was harvested into pre-labeled tubes and stored at −80° C. until analyzed by LC-MS/MS.

[4] = female, mouse, liver microsomes

KG-1 cell (OP2-FGFR1), sequence (P11362 456-822 limits assumed): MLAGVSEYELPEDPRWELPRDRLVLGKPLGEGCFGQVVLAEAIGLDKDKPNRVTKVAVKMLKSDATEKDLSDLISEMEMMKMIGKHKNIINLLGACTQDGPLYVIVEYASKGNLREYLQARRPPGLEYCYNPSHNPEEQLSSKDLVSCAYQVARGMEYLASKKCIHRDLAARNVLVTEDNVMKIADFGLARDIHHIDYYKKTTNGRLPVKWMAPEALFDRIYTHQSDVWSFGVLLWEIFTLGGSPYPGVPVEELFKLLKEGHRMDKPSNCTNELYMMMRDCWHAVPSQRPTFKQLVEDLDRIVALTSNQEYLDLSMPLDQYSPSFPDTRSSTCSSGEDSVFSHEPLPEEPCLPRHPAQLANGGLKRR
KM12 (TPM3-TRKA), sequence (P04629 with tags, fused parts or gaps): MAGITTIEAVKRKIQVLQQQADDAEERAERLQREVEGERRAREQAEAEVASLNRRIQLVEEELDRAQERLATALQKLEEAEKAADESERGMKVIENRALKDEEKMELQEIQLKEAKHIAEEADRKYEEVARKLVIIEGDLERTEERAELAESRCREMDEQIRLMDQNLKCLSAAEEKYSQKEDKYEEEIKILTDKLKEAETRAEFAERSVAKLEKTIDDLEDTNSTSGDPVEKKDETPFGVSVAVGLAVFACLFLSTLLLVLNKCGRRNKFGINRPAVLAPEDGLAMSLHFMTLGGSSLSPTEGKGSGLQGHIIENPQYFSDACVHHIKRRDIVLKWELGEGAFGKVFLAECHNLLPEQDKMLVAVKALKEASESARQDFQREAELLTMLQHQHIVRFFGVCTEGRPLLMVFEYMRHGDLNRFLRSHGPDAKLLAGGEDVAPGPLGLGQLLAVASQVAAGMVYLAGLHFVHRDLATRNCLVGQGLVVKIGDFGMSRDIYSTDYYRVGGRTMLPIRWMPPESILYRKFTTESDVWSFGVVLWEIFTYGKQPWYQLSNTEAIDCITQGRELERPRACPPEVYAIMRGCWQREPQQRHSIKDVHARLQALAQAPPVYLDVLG

SMILES	IC50 (KM12 (TPM3-TRKA)) [nM]	IC50 (KG-1 cell (OP2-FGFR1)) [nM]	solubility [1] [µg/mL]	microsomal CLint at 1 µM [2, 4] [µL/min/mg]	microsomal CLint at 1 µM ([2]; female, rat, liver microsomes) [µL/min/mg]	microsomal CLint at 1 µM ([2]; human, pooled liver microsomes) [µL/min/mg]	AUC [3] [ng·h/mL]	Cmax [3] [ng/mL]	Tmax [3] [min]
O=C1NC2(CC2)COc2ccc(F)cc2CN2c3nc4c1cnn4cc3OC[C@H]2C(F)F [Compound 4, (4′S)-4′-(Difluoromethyl)-8′-fluoro-3′H,4′H,6′H,12′H,14′H,15′H-spiro[cyclopropane-1,13′-[18,1](metheno)[1,4]oxazino[3,4-i]pyrazolo[4,3-f][1,4,8,10]benzoxatriazacyclotridecin]-15′-one]		60.9							
CC1(C)CCOc2ccc(F)cc2CN2c3nc4c(cnn4cc3OC[C@H]2C(F)F)C(=O)N1 [Compound 8, (16S)-16-(Difluoromethyl)-12-fluoro-6,6-dimethyl-5,6,7,8,16,17-hexahydro-4H,14H-1,19-(metheno)[1,4]oxazino[3,4-j]pyrazolo[4,3-g][1,5,9,11]benzoxatriazacyclotetradecin-4-one]	< 0.2	2100							
C[C@@H]1CCOc2ccc(F)cc2CN2c3nc4c(cnn4cc3OC[C@H]2C(F)F)C(=O)N1 [Compound 5, (6R,16S)-16-(Difluoromethyl)-12-fluoro-6-methyl-5,6,7,8,16,17-hexahydro-4H,14H-1,19-(metheno)[1,4]oxazino[3,4-j]pyrazolo[4,3-g][1,5,9,11]benzoxatriazacyclotetradecin-4-one]	< 0.2	514							
O=C1NCCCOc2ccc(F)cc2CN2c3nc4c1cnn4cc3OC[C@H]2C(F)F [Compound 3, (16S)-16-(Difluoromethyl)-12-fluoro-5,6,7,8,16,17-hexahydro-4H,14H-1,19-(metheno)[1,4]oxazino[3,4-j]pyrazolo[4,3-g][1,5,9,11]benzoxatriazacyclotetradecin-4-one]	< 0.2	75.3							

Continued by falling IC50 (KG-1 cell (OP2-FGFR1)), values first:

IC50 (KM12 (TPM3-TRKA)) [nM]	IC50 (KG-1 cell (OP2-FGFR1)) [nM]	solubility [1] [µg/mL]	microsomal CLint at 1 µM [2, 4] [µL/min/mg]	microsomal CLint at 1 µM ([2]; female, rat, liver microsomes) [µL/min/mg]	microsomal CLint at 1 µM ([2]; human, pooled liver microsomes) [µL/min/mg]	AUC [3] [ng·h/mL]	Cmax [3] [ng/mL]	Tmax [3] [min]	SMILES
< 0.2	385								O=C1NC2(CCOc3ccc(F)cc3CN3c4nc5c1cnn5cc4OC[C@H]3C(F)F)CC2 [Compound 6, (16′S)-16′-(Difluoromethyl)-12′-fluoro-4′H,5′H,7′H,8′H,14′H,16′H,17′H-spiro[cyclopropane-1,6′-[1,19](metheno)[1,4]oxazino[3,4-j]pyrazolo[4,3-g][1,5,9,11]benzoxatriazacyclotetradecin]-4′-one]
< 0.2	40.7								CC1(C)CNC(=O)c2cnn3cc4c(nc23)N(Cc2cc(F)ccc2OC1)[C@H](C(F)F)CO4 [Compound 7, (16S)-16-(Difluoromethyl)-12-fluoro-7,7-dimethyl-5,6,7,8,16,17-hexahydro-4H,14H-1,19-(metheno)[1,4]oxazino[3,4-j]pyrazolo[4,3-g][1,5,9,11]benzoxatriazacyclotetradecin-4-one]
< 0.2	22.2	7.9 (≈ 19.8 µM)	22	10	2.6	12300	4190	30	C[C@@H]1COc2ncc(F)cc2CN2c3nc4c(cnn4cc3OC[C@H]2C)C(=O)N1 [Comp. Ex. 1, reference compound]
0.2	0.65	4.9 (≈ 11.9 µM)	21	5.9	3.9	18700	2900	30	C[C@@H]1COc2cn3ncc4c3nc2N1Cc1cc(F)cnc1OCC(C)(C)NC4=O [Comp. Ex. 2, reference compound]
